Results published in the NIST ThermoML archive (doi:10.1021/je049918m).
Several values for one entry are separate records, joined by “and”; a condition that tells them apart may be missing. Identical values can stand only once.

Conditions: Liquid, Falling or rolling sphere viscometry

[2H]O[2H] [water-d2]
Conditions	viscosity
255.65 K, 212200 kPa	3.963 mPa·s
255.65 K, 220100 kPa	3.973 mPa·s
255.65 K, 239200 kPa	4.012 mPa·s
255.65 K, 249500 kPa	4.036 mPa·s
258.15 K, 196900 kPa	3.566 mPa·s
258.15 K, 215300 kPa	3.588 mPa·s
258.15 K, 242900 kPa	3.629 mPa·s
258.15 K, 271000 kPa	3.697 mPa·s
258.15 K, 298500 kPa	3.777 mPa·s
258.15 K, 315600 kPa	3.835 mPa·s
263.15 K, 153200 kPa	2.939 mPa·s
263.15 K, 160800 kPa	2.937 mPa·s
263.15 K, 185300 kPa	2.944 mPa·s
263.15 K, 200800 kPa	2.953 mPa·s
263.15 K, 249500 kPa	3.02 mPa·s
263.15 K, 299600 kPa	3.125 mPa·s
263.15 K, 347100 kPa	3.26 mPa·s
263.15 K, 383400 kPa	3.381 mPa·s
268.15 K, 109700 kPa	2.494 mPa·s
268.15 K, 125300 kPa	2.475 mPa·s
268.15 K, 150900 kPa	2.468 mPa·s
268.15 K, 174700 kPa	2.464 mPa·s
268.15 K, 201200 kPa	2.481 mPa·s
268.15 K, 251400 kPa	2.535 mPa·s
268.15 K, 289200 kPa	2.601 mPa·s
268.15 K, 325500 kPa	2.675 mPa·s
268.15 K, 390600 kPa	2.85 mPa·s
273.15 K, 52000 kPa	2.196 mPa·s
273.15 K, 69600 kPa	2.159 mPa·s
273.15 K, 99700 kPa	2.116 mPa·s
273.15 K, 130400 kPa	2.098 mPa·s
273.15 K, 150600 kPa	2.096 mPa·s
273.15 K, 177300 kPa	2.103 mPa·s
273.15 K, 204300 kPa	2.119 mPa·s
273.15 K, 223000 kPa	2.135 mPa·s
273.15 K, 252900 kPa	2.165 mPa·s
273.15 K, 279500 kPa	2.203 mPa·s
273.15 K, 302900 kPa	2.234 mPa·s
273.15 K, 350500 kPa	2.318 mPa·s
273.15 K, 357500 kPa	2.336 mPa·s
273.15 K, 395200 kPa	2.435 mPa·s
278.15 K, 100 kPa	1.987 mPa·s
278.15 K, 3100 kPa	1.977 mPa·s
278.15 K, 5600 kPa	1.968 mPa·s
278.15 K, 8100 kPa	1.961 mPa·s
278.15 K, 10800 kPa	1.952 mPa·s
278.15 K, 25900 kPa	1.911 mPa·s
278.15 K, 50800 kPa	1.862 mPa·s
278.15 K, 75600 kPa	1.829 mPa·s
278.15 K, 100700 kPa	1.811 mPa·s
278.15 K, 125600 kPa	1.803 mPa·s
278.15 K, 150500 kPa	1.802 mPa·s
278.15 K, 174500 kPa	1.809 mPa·s
278.15 K, 199100 kPa	1.822 mPa·s
278.15 K, 224100 kPa	1.841 mPa·s
278.15 K, 249600 kPa	1.865 mPa·s
278.15 K, 299700 kPa	1.922 mPa·s
278.15 K, 349100 kPa	1.993 mPa·s
283.15 K, 100 kPa	1.677 mPa·s
283.15 K, 200 kPa	1.676 mPa·s and 1.677 mPa·s
283.15 K, 3000 kPa	1.67 mPa·s
283.15 K, 5600 kPa	1.665 mPa·s
283.15 K, 8100 kPa	1.66 mPa·s
283.15 K, 10800 kPa	1.655 mPa·s
283.15 K, 25800 kPa	1.629 mPa·s
283.15 K, 50800 kPa	1.597 mPa·s and 1.598 mPa·s
283.15 K, 100800 kPa	1.569 mPa·s and 1.567 mPa·s
283.15 K, 125500 kPa	1.566 mPa·s
283.15 K, 150600 kPa	1.57 mPa·s
283.15 K, 150800 kPa	1.569 mPa·s
283.15 K, 175500 kPa	1.579 mPa·s
283.15 K, 199400 kPa	1.592 mPa·s
283.15 K, 199700 kPa	1.592 mPa·s
283.15 K, 224300 kPa	1.608 mPa·s
283.15 K, 249600 kPa	1.629 mPa·s
283.15 K, 249700 kPa	1.63 mPa·s
283.15 K, 299200 kPa	1.678 mPa·s
283.15 K, 299600 kPa	1.678 mPa·s
283.15 K, 348600 kPa	1.737 mPa·s
283.15 K, 348700 kPa	1.737 mPa·s
298.15 K, 100 kPa	1.097 mPa·s [middle of 6 runs]
298.15 K, 200 kPa	1.095 mPa·s
298.15 K, 5600 kPa	1.092 mPa·s
298.15 K, 8000 kPa	1.09 mPa·s
298.15 K, 10300 kPa	1.091 mPa·s
298.15 K, 10700 kPa	1.09 mPa·s
298.15 K, 25700 kPa	1.084 mPa·s
298.15 K, 30700 kPa	1.084 mPa·s
298.15 K, 50700 kPa	1.079 mPa·s and 1.081 mPa·s
298.15 K, 60700 kPa	1.079 mPa·s
298.15 K, 75600 kPa	1.08 mPa·s
298.15 K, 90600 kPa	1.081 mPa·s
298.15 K, 90700 kPa	1.081 mPa·s
298.15 K, 100600 kPa	1.081 mPa·s
298.15 K, 120700 kPa	1.086 mPa·s
298.15 K, 125600 kPa	1.087 mPa·s
298.15 K, 130600 kPa	1.089 mPa·s
298.15 K, 150600 kPa	1.094 mPa·s and 1.095 mPa·s
298.15 K, 170500 kPa	1.104 mPa·s
298.15 K, 175600 kPa	1.105 mPa·s
298.15 K, 180600 kPa	1.108 mPa·s
298.15 K, 200600 kPa	1.117 mPa·s
298.15 K, 210200 kPa	1.122 mPa·s
298.15 K, 210600 kPa	1.123 mPa·s
298.15 K, 225500 kPa	1.131 mPa·s
298.15 K, 240600 kPa	1.141 mPa·s
298.15 K, 249700 kPa	1.146 mPa·s
298.15 K, 270500 kPa	1.16 mPa·s
298.15 K, 299600 kPa	1.181 mPa·s
298.15 K, 300300 kPa	1.182 mPa·s
298.15 K, 330100 kPa	1.205 mPa·s
298.15 K, 331900 kPa	1.205 mPa·s
298.15 K, 349000 kPa	1.221 mPa·s
298.15 K, 359800 kPa	1.23 mPa·s
298.15 K, 389400 kPa	1.257 mPa·s
